Measurements reported in PMC5486949 (SLAS discovery, 2017).
Where a name gives a salt, the structure may show the parent alone. Read-outs that look alike come from different tables or passages of the source.

Assays:
ERRα [1] = test: ERR luciferase reporter gene assay, agonist mode; type: cell-based, human; details: for EC50: read-out: ERRα (Agonist) EC50; for AC50: read-out: AC50 ERR ↑
PGC-1α/ERRα [2] = test: PGC/ERR luciferase reporter gene assay, agonist mode; type: cell-based, human; details: Homo sapiens; for AC50: read-out: AC50 PGC-ERR ↑; for EC50: read-out: PGC-1α/ERRα (Agonist) EC50
[3] = tested on: ERR and PGC/ERR cell lines; test: Cell viability; details: agonist mode, ERR and PGC/ERR lines (Fig. 3A,B)
ERRα [4] = test: ERR luciferase reporter gene assay, antagonist mode; type: cell-based, human; details: for AC50: read-out: AC50 ERR↓; for IC50: read-out: ERRα (Antagonist) IC50
PGC-1α/ERRα [5] = test: PGC/ERR luciferase reporter gene assay, antagonist mode; type: cell-based, human; details: for AC50: read-out: AC50 PGC/ERR ↓; for IC50: read-out: PGC-1α/ERRα (Antagonist) IC50
[6] = tested on: aryl hydrocarbon receptor (AhR); details: cited from earlier work
ERR cell line (HEK293T) = test: Cell viability assay multiplexed with ERR antagonist mode assay; type: cell-based, human; details: Homo sapiens, HEK-293T, read-out: ERRα (Viability) IC50
[7] = LOPAC qHTS, dash = inconclusive or no activity
[8] = antagonist mode, 0 = inactive or inconclusive

With O=C1Nc2ccccc2/C1=C1/Nc2ccccc2/C1=N\O [Indirubin-3′-oxime] the EC50 (ERRα [1]; [7]) was 2.66 µM.

In the case of O=C1Cc2c([nH]c3ccc(Br)cc23)-c2ccccc2N1 [Kenpaullone], the AC50 (ERRα [1]; Homo sapiens) is reported as 2.95 µM, the EC50 (ERRα [1]; Homo sapiens) is reported as 2.98 µM and the AC50 (PGC-1α/ERRα [2]) is reported as 1.32 µM. For the same compound, the EC50 (PGC-1α/ERRα [2]) was 1.33 µM and the “cytotoxicity at concentrations of outfitted points of agonist curves” value [3] was “cytotoxicity did not appear to be the direct cause for the outfitted points”.

For CC[N+](CC)(CC)CCOc1ccc(/C=C/c2ccccc2)cc1 [MG 624], the AC50 (ERRα [4]; Homo sapiens) was 10.5 µM, the IC50 (ERRα [4]; Homo sapiens) was 9.44 µM and the AC50 (PGC-1α/ERRα [5]; Homo sapiens) was 11.7 µM. For the same compound, the IC50 (PGC-1α/ERRα [5]; Homo sapiens) was 12.6 µM.

Compound CC[C@H](C)C(=O)O[C@H]1CCC=C2C=C[C@H](C)[C@H](CC[C@@H]3C[C@@H](O)CC(=O)O3)[C@H]21 [Mevastatin] has an EC50 (ERRα [1]; Homo sapiens) of 2.98 µM.

CC#C[C@]1(O)CC[C@H]2[C@@H]3CCC4=CC(=O)CCC4=C3[C@@H](c3ccc(N(C)C)cc3)C[C@@]21C [Mifepristone] showed an IC50 (ERRα [4]; Homo sapiens) of 23.7 µM.

In the case of Nc1ccc(CCNc2ncnc3c2ncn3[C@@H]2O[C@H](CO)[C@@H](O)[C@H]2O)cc1 [N6-2-(4-Aminophenyl)ethyladenosine], the EC50 (PGC-1α/ERRα [2]) is reported as 11.9 µM.

In the case of OC[C@H]1O[C@@H](n2cnc3c(NC4CCCC4)ncnc32)[C@H](O)[C@@H]1O [N6-Cyclopentyladenosine], the EC50 (PGC-1α/ERRα [2]) is reported as 2.98 µM.

Work on COC(=O)Nc1nc2ccc(C(=O)c3cccs3)cc2[nH]1 [Nocodazole] yielded an EC50 (PGC-1α/ERRα [2]) of 1.88 µM.

COc1cccc(-c2cc(=O)c3ccccc3o2)c1N [PD 98,059] showed an EC50 (ERRα [1]; [7]) of 2.11 µM.

CCCCCCCCCCCCCC(=O)O[C@@H]1[C@@H](C)[C@@]2(O)[C@@H](C=C(CO)C[C@]3(O)C(=O)C(C)=C[C@@H]23)[C@@H]2C(C)(C)[C@]12OC(C)=O [Phorbol 12-myristate 13-acetate] showed an AC50 (ERRα [1]; Homo sapiens) of 0.00832 µM, an EC50 (ERRα [1]; Homo sapiens) of 0.01 µM and an AC50 (PGC-1α/ERRα [2]) of 0.00661 µM. The EC50 (PGC-1α/ERRα [2]) was 0.01 µM and the “cytotoxicity at concentrations of outfitted points of agonist curves” value [3] was “cytotoxicity was seen at the concentration accompanying the outfitted points”.

Compound Oc1cc(O)cc(/C=C/c2ccc(O)c(O)c2)c1 [Piceatannol] has an AC50 (ERRα [1]; Homo sapiens) of 8.32 µM, an EC50 (ERRα [1]; Homo sapiens) of 8.41 µM and an AC50 (PGC-1α/ERRα [2]) of 18.6 µM. For the same compound, the EC50 (PGC-1α/ERRα [2]) was 18.8 µM.

CC(=O)[C@H]1CC[C@H]2[C@@H]3CCC4=CC(=O)CC[C@]4(C)[C@H]3CC[C@]12C [Progesterone] gave an IC50 (ERRα [4]; Homo sapiens) of 11.9 µM.

In the case of Cc1cccc(-c2[nH]ncc2-c2ccc3ncccc3n2)n1 [RepSox], the “AC50 ERR↓” value (ERRα [4]) is reported as 5.88 log10(M)*–1, the IC50 (ERRα [4]) is reported as 1.33 µM and the “AC50 PGC/ERR ↓” value (PGC-1α/ERRα [5]) is reported as 5.93 log10(M)*–1. It also gave an IC50 (PGC-1α/ERRα [5]) of 1.19 µM.

With Oc1ccc(/C=C/c2cc(O)cc(O)c2)cc1 [Resveratrol] the AC50 (ERRα [1]; Homo sapiens) was 3.31 µM, the EC50 (ERRα [1]; Homo sapiens) was 3.35 µM and the AC50 (PGC-1α/ERRα [2]) was 11.7 µM. The EC50 (PGC-1α/ERRα [2]) was 11.9 µM.

For Cc1nc2sccn2c(=O)c1CCN1CCC(=C(c2ccc(F)cc2)c2ccc(F)cc2)CC1 [Ritanserin], the IC50 (ERRα [4]; Homo sapiens) was 16.8 µM.

In the case of O=c1c2ccccc2nc2n1CCc1c-2[nH]c2ccccc12 [Rutaecarpine], the “AC50 AhR ↑” value [6] is listed as 5.53 log10(M)*–1, the AC50 (ERRα [1]; Homo sapiens) is listed as 2.34 µM and the EC50 (ERRα [1]; Homo sapiens) is listed as 2.37 µM. The AC50 (PGC-1α/ERRα [2]) was 13.2 µM and the EC50 (PGC-1α/ERRα [2]) was 13.3 µM.

Oc1ccc(-c2nc(-c3ccncc3)c(-c3ccc(F)cc3)[nH]2)cc1 [SB 202190] showed an IC50 (ERRα [4]; Homo sapiens) of 10.6 µM.

In the case of Cc1ccc(O)c(N=Nc2ccccc2)n1 [SIB 1757], the EC50 (ERRα [1]; [7]) is reported as 8.41 µM.

Work on Cc1cccc(/C=C/c2ccccc2)n1 [SIB 1893] yielded an EC50 (ERRα [1]; [7]) of 13.3 µM.

With COc1ccc(CCCOC(Cn2ccnc2)c2ccc(OC)cc2)cc1 (centres unmarked) [SKF 96365] the IC50 (ERRα [4]; Homo sapiens) was 17.8 µM.

For C=CCNc1ncnc2ccc(Br)cc12 [SMER28], the “AC50 ERR↓” value (ERRα [4]; [8]) was 5.03 log10(M)*–1 and the “AC50 PGC/ERR ↓” value (PGC-1α/ERRα [5]; [8]) was 4.98 log10(M)*–1.

CN(C)c1ccc(C=C2C(=O)Nc3ccccc32)cc1 [SU 4312] showed an EC50 (ERRα [1]; [7]) of 3.35 µM.

For CN(C)S(=O)(=O)c1ccc2c(c1)/C(=C/c1cc3c([nH]1)CCCC3)C(=O)N2 [SU 6656], the EC50 (PGC-1α/ERRα [2]) was 23.7 µM.

For CC(=O)S[C@@H]1CC2=CC(=O)CC[C@]2(C)[C@H]2CC[C@@]3(C)[C@@H](CC[C@@]34CCC(=O)O4)[C@H]12 [Spironolactone], the AC50 (ERRα [4]; Homo sapiens) was 16.6 µM, the IC50 (ERRα [4]; Homo sapiens) was 18.8 µM and the AC50 (PGC-1α/ERRα [5]; Homo sapiens) was 9.33 µM. The IC50 (PGC-1α/ERRα [5]; Homo sapiens) was 9.44 µM.

With CCN1/C(=C/C(C)=O)Sc2ccc(OC)cc21 [TG003] the “AC50 ERR↓” value (ERRα [4]; [8]) was 4.93 log10(M)*–1 and the “AC50 PGC/ERR ↓” value (PGC-1α/ERRα [5]; [8]) was 5.23 log10(M)*–1.

Work on C/C=C(/C)C(=O)O[C@H]1C(C)=C2[C@H]([C@@H]1OC(=O)CCCCCCC)[C@@](C)(OC(C)=O)C[C@H](OC(=O)CCC)[C@@]1(O)[C@H]2OC(=O)[C@@]1(C)O [Thapsigargin] yielded an IC50 (ERRα [4]; Homo sapiens) of 0.24 µM and an IC50 (ERR cell line (HEK293T)) of 10.6 µM.

COc1ccc(/C=C/C(=O)Nc2ccccc2C(=O)O)cc1OC [Tranilast] showed an EC50 (ERRα [1]; Homo sapiens) of 1.68 µM.

Work on COc1cc2c(cc1OC)-c1c/c(=N\c3c(C)cc(C)cc3C)n(C)c(=O)n1CC2 [Trequinsin hydrochloride] yielded an IC50 (ERRα [4]; Homo sapiens) of 16.8 µM.

For CC(C)(C)c1cc(/C=C(\C#N)C(N)=S)cc(C(C)(C)C)c1O [Tyrphostin AG 879], the IC50 (ERRα [4]; Homo sapiens) was 2.37 µM.
